Data published in patent US12435065B2, “Crystalline forms of 1-(1,2-dimethylpropyl)-N-ethyl-5-methyl-N-pyridazin-4-yl-pyrazole-4-carboxamide” (BASF SE, priority 2019, dated 2025).

Assays:
[1] = Suspension of form A and form B in water, solid analysed by PXRD (phase stability); format: physicochemical
Experimental: (§1) Laboratory PXRD patterns were recorded with a PANalytical X'Pert Pro X-ray diffractometer using Cu Kα radiation in reflection geometry (Bragg-Brentano). The sample is placed in a silicon single crystal sample holder of 0.2 mm depth and gently and precisely flattened. The tube voltage is 45 kV and current is 40 mA. The PXRD data are collected at room temperature in the range from 2θ=3.0°-40.0° with increments of 0.017° and measurement time of 20 to 200 s/step.
In a glass tube equipped with a stirring bar 50 mg of form A and 50 mg of form B were suspended in 1 mL water and stirred for 5 days at room temperature. The resulting solid was removed from the mother liquor and analyzed by PXRD.

[2] = Milling of crystalline form B, analysed by PXRD (stability during grinding); format: physicochemical; conditions: 100 mg milled for 5 minutes with mortar and pestle
Experimental: as §1
100 mg of crystalline form B obtained by the protocol of example 1 was milled for 5 minutes using mortar and pestel. The crystalline mass was analyzed by powder X-ray diffractometry.

Crystal form after milling (PXRD) [2]	Structure (SMILES)	Crystal form of the solid after stirring in water (PXRD) ([1]; 50 mg form A and 50 mg form B suspended in 1 mL water, stirred 5 days at room temperature)	Thermodynamic stability relative to crystalline form A ([1]; at least at room temperature)
–	CCN(C(=O)c1cnn(C(C)C(C)C)c1C)c1ccnnc1 (stereo not drawn) [form A, 1-(1,2-dimethylpropyl)-N-ethyl-5-methyl-N-pyridazin-4-yl-pyrazole-4-carboxamide]	complied with the data of crystalline form B	–
form B was identified	CCN(C(=O)c1cnn(C(C)C(C)C)c1C)c1ccnnc1 (stereo not drawn) [form B, 1-(1,2-dimethylpropyl)-N-ethyl-5-methyl-N-pyridazin-4-yl-pyrazole-4-carboxamide]	–	thermodynamically more stable than the crystalline form A
